Measurements reported in publication PMC9866191, “Novel 9-Benzylaminoacridine Derivatives as Dual Inhibitors of Phosphodiesterase 5 and Topoisomerase II for the Treatment of Colon Cancer” (Molecules, 2023).

How the values were obtained:
SF-268 = test: NCI-60 one-dose screen; assay type: cell-based; settings: Homo sapiens; SF-268, CNS Cancer panel; single dose 10^−5 M; read-out: Growth inhibition %
LOX IMVI = test: NCI-60 one-dose screen; assay type: cell-based; settings: Homo sapiens, Melanoma panel, single dose 10^−5 M, read-out: Growth inhibition %
PDE5A = target: T1, PDE5A (Homo sapiens, UniProt O76074); test: Phosphodiesterase 5 HTRF cGMP assay; assay type: biochemical; settings: for IC50: means ± S.D. (n = 4), read-out: PDE5 IC50; for inhibition at 10 µM: read-out: PDE5 % Inhibition at 10 μM
T1 construct: purchased BPS Bioscience, San Diego, CA, USA
Method: All the synthesized acridine derivatives were tested for their in vitro ability to inhibit PDE5A at a screening dose of 10 µM.
The enzyme activities of phosphodiesterase 5 (PDE5) were measured using an HTRF cGMP assay kit (Cisbio, Codolet, France). […] Afterward, the HTRF reagent (cGMP-d2 and anti-cGMP-cryptate) was added for 1 h at 25 °C, and PDE activity was assayed on an HTRF reader (Tecan Infinite F200 Pro).

HCT-116 = test: MTT cell proliferation assay, HCT-116; settings: for % Inhibition at 10 µM: 72 h MTT, means ± SD; for IC50: read-out: IC50 μM, 72 h MTT, means ± SD, three experiments
SK-MEL-28 = test: NCI-60 one-dose screen; assay type: cell-based; settings: Homo sapiens; SK-MEL-28, Melanoma panel; single dose 10^−5 M; read-out: Growth inhibition %
Method: (§1) The newly synthesized compounds were screened for their in vitro anticancer activity at the Developmental Therapeutic Program (DTP) of the National Cancer Institute (NCI). The screening involved a panel of 60 human tumor cell lines consisting of 9 tissue types to screen for potential anti-cancer agents. The primary screening of submitted compounds was performed by testing a single dose (10^−5 M) in the full NCI-60 panel. The detailed % inhibition by the tested compounds against the 60 cell lines is shown in Tables S1–S3 in the Supporting Information.

HCT-15 = test: NCI-60 one-dose screen; assay type: cell-based; settings: Homo sapiens; HCT-15, Colon Cancer panel; single dose 10^−5 M; read-out: Growth inhibition %
Method: as §1

OVCAR-8 = test: NCI-60 one-dose screen; assay type: cell-based; settings: Homo sapiens; OVCAR-8, Ovarian Cancer panel; single dose 10^−5 M; read-out: Growth inhibition %
Method: as §1

KM12 = test: NCI-60 one-dose screen; assay type: cell-based; settings: Homo sapiens; KM12, Colon Cancer panel; single dose 10^−5 M; read-out: Growth inhibition %
Method: as §1

TK-10 = test: NCI-60 one-dose screen; assay type: cell-based; settings: Homo sapiens; TK-10, Renal Cancer panel; single dose 10^−5 M; read-out: Growth inhibition %
Method: as §1

K-562 = test: NCI-60 one-dose screen; assay type: cell-based; settings: Homo sapiens, K562; K-562, Leukemia panel; single dose 10^−5 M; read-out: Growth inhibition %
Method: as §1

MDA-MB-231/ATCC = test: NCI-60 one-dose screen; assay type: cell-based; settings: Homo sapiens, Breast Cancer panel, single dose 10^−5 M, read-out: Growth inhibition %
Method: as §1

SNB-19 = test: NCI-60 one-dose screen; assay type: cell-based; settings: Homo sapiens; SNB-19, CNS Cancer panel; single dose 10^−5 M; read-out: Growth inhibition %
Method: as §1

SF-539 = test: NCI-60 one-dose screen; assay type: cell-based; settings: Homo sapiens; SF-539, CNS Cancer panel; single dose 10^−5 M; read-out: Growth inhibition %
Method: as §1

RXF 393 = test: NCI-60 one-dose screen; assay type: cell-based; settings: Homo sapiens; RXF 393, Renal Cancer panel; single dose 10^−5 M; read-out: Growth inhibition %
Method: as §1

NCI-H226 = test: NCI-60 one-dose screen; assay type: cell-based; settings: Homo sapiens; NCI-H226, Non-small cell lung panel; single dose 10^−5 M; read-out: Growth inhibition %
Method: as §1

NCI-H460 = test: NCI-60 one-dose screen; assay type: cell-based; settings: Homo sapiens; NCI-H460, Non-small cell lung panel; single dose 10^−5 M; read-out: Growth inhibition %
Method: as §1

OVCAR-5 = test: NCI-60 one-dose screen; assay type: cell-based; settings: Homo sapiens; OVCAR-5, Ovarian Cancer panel; single dose 10^−5 M; read-out: Growth inhibition %
Method: as §1

OVCAR-3 = test: NCI-60 one-dose screen; assay type: cell-based; settings: Homo sapiens; OVCAR-3, Ovarian Cancer panel; single dose 10^−5 M; read-out: Growth inhibition %
Method: as §1

SK-OV-3 = test: NCI-60 one-dose screen; assay type: cell-based; settings: Homo sapiens; SK-OV-3, Ovarian Cancer panel; single dose 10^−5 M; read-out: Growth inhibition %
Method: as §1

RPMI-8226 = test: NCI-60 one-dose screen; assay type: cell-based; settings: Homo sapiens; RPMI-8226, Leukemia panel; single dose 10^−5 M; read-out: Growth inhibition %
Method: as §1

UO-31 = test: NCI-60 one-dose screen; assay type: cell-based; settings: Homo sapiens; UO-31, Renal Cancer panel; single dose 10^−5 M; read-out: Growth inhibition %
Method: as §1

MOLT-4 = test: NCI-60 one-dose screen; assay type: cell-based; settings: Homo sapiens; MOLT-4, Leukemia panel; single dose 10^−5 M; read-out: Growth inhibition %
Method: as §1

A498 = test: NCI-60 one-dose screen; assay type: cell-based; settings: Homo sapiens; A498, Renal Cancer panel; single dose 10^−5 M; read-out: Growth inhibition %
Method: as §1

MDA-MB-435 = test: NCI-60 one-dose screen; assay type: cell-based; settings: Homo sapiens; MDA-MB-435, Melanoma panel; single dose 10^−5 M; read-out: Growth inhibition %
Method: as §1

CCRF-CEM = test: NCI-60 one-dose screen; assay type: cell-based; settings: Homo sapiens, Leukemia panel, single dose 10^−5 M, read-out: Growth inhibition %
IGROV1 = test: NCI-60 one-dose screen; assay type: cell-based; settings: Homo sapiens, IGROV-1; IGROV1, Ovarian Cancer panel; single dose 10^−5 M; read-out: Growth inhibition %
CCD-966SK = test: MTT cell proliferation assay, CCD-966SK; settings: CCD966SK skin fibroblast, 72 h MTT
Method: In the MTT assay, 96-well culture plates were used. A total of 7 × 10^4 cells per well were seeded, and test materials were added to the cells at various concentrations [47, 48]. Human cancer and non-cancer cell lines were purchased commercially from the American Type Culture Collection (ATCC). After 72 h, the cytotoxicity of the compounds and paclitaxel (as a positive control group) was detected using the MTT method (thiazolyl blue tetrazolium bromide, Sigma-M2128). Absorbance values at 570 and 620 nm (OD = OD570–OD620) were measured using an ELISA reader (Anthos Labtec Instruments, Salzburg, Austria).

[1] = tested on: panel of 60 human tumor cell lines; test: NCI 60-cell line one-dose screen (mean); assay type: cell-based; settings: mean of the 60 cell lines, single dose 10^−5 M, read-out: Mean % Growth Inhibition
Method: as §1

Compound | inhibition at 10 µM (SF-268) | inhibition at 10 µM (LOX IMVI) | IC50 (PDE5A) | inhibition at 10 µM (PDE5A) | % Inhibition at 10 µM (HCT-116) | IC50 (HCT-116) | inhibition at 10 µM (SK-MEL-28) | inhibition at 10 µM (HCT-15) | inhibition at 10 µM (OVCAR-8) | inhibition at 10 µM (KM12) | inhibition at 10 µM (TK-10) | inhibition at 10 µM (K-562) | inhibition at 10 µM (MDA-MB-231/ATCC) | inhibition at 10 µM (SNB-19) | inhibition at 10 µM (SF-539) | inhibition at 10 µM (RXF 393) | inhibition at 10 µM (NCI-H226) | inhibition at 10 µM (NCI-H460) | inhibition at 10 µM (OVCAR-5) | inhibition at 10 µM (OVCAR-3) | further results
c1ccc(CNc2c3ccccc3nc3ccccc23)cc1 [Compound 1, Acridin-9-yl-benzyl-amine] | 37.4% | 80.2% | 9.33 ± 4.62 µM | 52.2 ± 5.87% | 67.16 ± 2.40% | 2.81 ± 0.2 µM | 14.5% | 75.4% | 73.9% | 69.5% | 51.3% | 87.7% | 42.1% | 60.6% | 76% | 58.1% | 48.3% | 89.7% | 54.3% | 48.3% | inhibition at 10 µM (SK-OV-3): 53.3%; inhibition at 10 µM (RPMI-8226): 92.3%; inhibition at 10 µM (UO-31): 76.2%; inhibition at 10 µM (MOLT-4): 84.5%; inhibition at 10 µM (A498): 83.4%; inhibition at 10 µM (MDA-MB-435): 57.2%; inhibition at 10 µM (CCRF-CEM): 61%; inhibition at 10 µM (IGROV1): 70.2%; % Inhibition at 10 µM (CCD-966SK): 47.97 ± 1.96%; inhibition at 10 µM [1]: 62.7%
Cc1ccccc1CNc1c2ccccc2nc2ccccc12 [Compound 2, Acridin-9-yl-(2-methylbenzyl)-amine] | 57.1% | 90.9% | 9.87 ± 2.06 µM | 50.4 ± 3.68% | 66.96 ± 0.14% | 4.01 ± 0.17 µM | 41.7% | 85.4% | 79% | 83.1% | 61.4% | 95% | 60.1% | 72.9% | 96.7% | 92.2% | 68.5% | 93.1% | 63.3% | 68.7% | inhibition at 10 µM (SK-OV-3): 59.2%; inhibition at 10 µM (RPMI-8226): 109%; inhibition at 10 µM (UO-31): 84.5%; inhibition at 10 µM (MOLT-4): 91.2%; inhibition at 10 µM (A498): 102%; inhibition at 10 µM (MDA-MB-435): 76.1%; inhibition at 10 µM (CCRF-CEM): 82.4%; inhibition at 10 µM (IGROV1): 85.2%; % Inhibition at 10 µM (CCD-966SK): 59.74 ± 0.55%; IC50 (CCD-966SK; read-out: IC50 μM): 4.18 ± 0.36 µM; inhibition at 10 µM [1]: 77.7%
